In ChEMBL document CHEMBL1156737, “Terpenoids. III: Synthesis and biological evaluation of 23-hydroxybetulinic acid derivatives as novel inhibitors of glycogen phosphorylase” (Bioorg Med Chem Lett, 2009) one finds IC50 data, which are given here for 29 compounds.

One assay has as its target T1, Glycogen phosphorylase, muscle form (Oryctolagus cuniculus, UniProt P00489).
T1 sequence (P00489 whole entry): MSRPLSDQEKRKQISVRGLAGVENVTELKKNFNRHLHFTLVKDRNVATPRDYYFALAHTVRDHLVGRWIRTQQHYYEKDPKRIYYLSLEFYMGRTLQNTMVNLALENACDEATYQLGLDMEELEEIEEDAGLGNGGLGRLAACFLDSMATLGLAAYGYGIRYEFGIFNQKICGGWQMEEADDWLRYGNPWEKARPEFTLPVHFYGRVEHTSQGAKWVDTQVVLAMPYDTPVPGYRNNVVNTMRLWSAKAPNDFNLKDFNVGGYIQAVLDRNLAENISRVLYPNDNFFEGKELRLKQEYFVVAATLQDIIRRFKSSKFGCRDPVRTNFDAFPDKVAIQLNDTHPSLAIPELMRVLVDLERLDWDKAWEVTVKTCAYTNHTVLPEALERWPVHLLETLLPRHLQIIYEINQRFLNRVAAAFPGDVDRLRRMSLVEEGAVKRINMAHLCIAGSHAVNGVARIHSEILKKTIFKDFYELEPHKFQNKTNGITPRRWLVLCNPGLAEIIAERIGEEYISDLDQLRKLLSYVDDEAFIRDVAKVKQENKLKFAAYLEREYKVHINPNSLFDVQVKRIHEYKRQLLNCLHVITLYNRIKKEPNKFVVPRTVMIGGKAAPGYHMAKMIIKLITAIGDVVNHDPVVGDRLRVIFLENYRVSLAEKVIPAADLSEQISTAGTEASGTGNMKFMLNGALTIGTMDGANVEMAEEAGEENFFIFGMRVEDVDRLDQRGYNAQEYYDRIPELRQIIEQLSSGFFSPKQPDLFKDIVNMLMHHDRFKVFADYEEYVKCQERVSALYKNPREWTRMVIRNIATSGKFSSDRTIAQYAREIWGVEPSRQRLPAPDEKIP
The assay is described as follows: Inhibition of rabbit muscle glycogen phosphorylase A assessed as release of phosphate from glucose-1-phosphate after 25 mins.
Settings: not given; call rule not given here
What is called IC50 is the concentration at which inhibition is half-maximal. Take `C=C(C)[C@@H]1CC[C@]2(C(=O)NCCCC)CC[C@]3(C)[C@H](CC[C@@H]4[C@@]5(C)CC[C@H](OC(=O)C(=O)NCCCC)[C@@](C)(COC(=O)C(=O)NCCCC)[C@@H]5CC[C@]43C)[C@@H]12`: the IC50 entry is “Not Active”.

The same assay, now with this note: read-out: IC50.
In the case of `C=C(C)[C@@H]1CC[C@]2(COC(=O)C(=O)OC)CC[C@]3(C)[C@H](CC[C@@H]4[C@@]5(C)CC[C@H](OC(=O)C(=O)OC)[C@@](C)(COC(=O)C(=O)OC)[C@@H]5CC[C@]43C)[C@@H]12`, the IC50 is 30.1 µM.

Turning to `C=C(C)[C@@H]1CC[C@]2(COC(=O)C(=O)OCC#CCO)CC[C@]3(C)[C@@H](CC[C@@H]4[C@@]5(C)CC[C@H](OC(=O)C(=O)OCC#CCO)[C@@](C)(COC(=O)C(=O)OCC#CCO)[C@@H]5CC[C@]43C)C12` (some centres undefined), the IC50 came out at 19.1 µM. In the case of `C=C(C)[C@@H]1CC[C@]2(C(=O)O)CC[C@]3(C)[C@H](CC[C@@H]4[C@@]5(C)CC[C@H](O)[C@@](C)(CO)[C@@H]5CC[C@]43C)[C@@H]12`, the IC50 was 103 µM. On the same count and under the same terms, next, `C=C(C)[C@@H]1CC[C@]2(C(=O)NCCCN)CC[C@]3(C)[C@H](CC[C@@H]4[C@@]5(C)CC[C@H](O)[C@@](C)(CO)[C@@H]5CC[C@]43C)[C@@H]12`: 23.8 µM; `C=C(C)[C@@H]1CC[C@]2(C(=O)NCC(=O)N[C@@H](Cc3ccccc3)C(=O)O)CC[C@]3(C)[C@H](CC[C@@H]4[C@@]5(C)CC[C@H](O)[C@@](C)(CO)[C@@H]5CC[C@]43C)[C@@H]12`: 129 µM; `C=C(C)[C@@H]1CC[C@]2(C(=O)OCCCCCC)CC[C@]3(C)[C@H](CC[C@@H]4[C@@]5(C)CC[C@H](O)[C@@](C)(CO)[C@@H]5CC[C@]43C)[C@@H]12`: 69.1 µM. Take `C=C(C)[C@@H]1CC[C@]2(COC(=O)C(=O)NCCCC)CC[C@]3(C)[C@H](CC[C@@H]4[C@@]5(C)CC[C@H](OC(=O)C(=O)NCCCC)[C@@](C)(COC(=O)C(=O)NCCCC)[C@@H]5CC[C@]43C)[C@@H]12`: the IC50 was 34.7 µM. For the compound `C=C(C)[C@@H]1CC[C@]2(C(=O)NCCCCCCNC(C)=O)CC[C@]3(C)[C@H](CC[C@@H]4[C@@]5(C)CC[C@H](OC(C)=O)[C@@](C)(COC(C)=O)[C@@H]5CC[C@]43C)[C@@H]12`, the IC50 turned out to be 34.1 µM. With `C=C(C)[C@@H]1CC[C@]2(C(=O)NCCCCCCN)CC[C@]3(C)[C@H](CC[C@@H]4[C@@]5(C)CC[C@H](OC(C)=O)[C@@](C)(COC(C)=O)[C@@H]5CC[C@]43C)[C@@H]12`, the concentration for half-maximal inhibition (IC50) was determined as 3.5 µM. In the case of `C=C(C)[C@@H]1CC[C@]2(C(=O)NCCCCCCN)CC[C@]3(C)[C@H](CC[C@@H]4[C@@]5(C)CC[C@H](O)[C@@](C)(CO)[C@@H]5CC[C@]43C)[C@@H]12`, the IC50 amounted to 10.2 µM. Take `C=C(C)[C@@H]1CC[C@]2(C(=O)OCCN(CCCCCCNC(C)=O)C(C)=O)CC[C@]3(C)[C@H](CC[C@@H]4[C@@]5(C)CC[C@H](OC(C)=O)[C@@](C)(COC(C)=O)[C@@H]5CC[C@]43C)[C@@H]12`: the IC50 is 96.6 µM.

In the case of `C=C(C)[C@@H]1CC[C@]2(C(=O)OCCCCCCOC(=O)c3ccccc3C(=O)O)CC[C@]3(C)[C@H](CC[C@@H]4[C@@]5(C)CC[C@H](OC(C)=O)[C@@](C)(COC(C)=O)[C@@H]5CC[C@]43C)[C@@H]12`, the 50% inhibitory concentration (IC50) worked out at 69.2 µM. As for `C=C(C)[C@@H]1CC[C@]2(C(=O)NCCCCCCN(CC)CC)CC[C@]3(C)[C@H](CC[C@@H]4[C@@]5(C)CC[C@H](OC(C)=O)[C@@](C)(COC(C)=O)[C@@H]5CC[C@]43C)[C@@H]12`, the IC50 came to 55.6 µM. As to `C=C(C)[C@@H]1CC[C@]2(C(=O)NCCCN(CC)CC)CC[C@]3(C)[C@H](CC[C@@H]4[C@@]5(C)CC[C@H](OC(C)=O)[C@@](C)(COC(C)=O)[C@@H]5CC[C@]43C)[C@@H]12`, the IC50 is 72.8 µM. As for `C=C(C)[C@@H]1CC[C@]2(C(=O)OCCBr)CC[C@]3(C)[C@H](CC[C@@H]4[C@@]5(C)CC[C@H](O)[C@@](C)(CO)[C@@H]5CC[C@]43C)[C@@H]12`, the half-inhibitory concentration (IC50) worked out at 289 µM. With `C=C(C)[C@@H]1CC[C@]2(COC(=O)C(=O)NC(C)C)CC[C@]3(C)[C@H](CC[C@@H]4[C@@]5(C)CC[C@H](OC(=O)C(=O)NC(C)C)[C@@](C)(COC(=O)C(=O)NC(C)C)[C@@H]5CC[C@]43C)[C@@H]12`, the IC50 amounted to 35.9 µM.

Consider `C=C(C)[C@@H]1CC[C@]2(C(=O)NCC(=O)OC)CC[C@]3(C)[C@H](CC[C@@H]4[C@@]5(C)CC[C@H](OC(C)=O)[C@@](C)(COC(C)=O)[C@@H]5CC[C@]43C)[C@@H]12`, for which the IC50 was 103 µM. Consider `C=C(C)[C@@H]1CC[C@]2(C(=O)NCCCCCCNC(=O)/C=C/C(=O)O)CC[C@]3(C)[C@H](CC[C@@H]4[C@@]5(C)CC[C@H](OC(C)=O)[C@@](C)(COC(C)=O)[C@@H]5CC[C@]43C)[C@@H]12`, for which the IC50 was 54.8 µM. On the same count and under the same terms, the value for `C=C(C)[C@@H]1CC[C@]2(C(=O)NCC(=O)O)CC[C@]3(C)[C@H](CC[C@@H]4[C@@]5(C)CC[C@H](O)[C@@](C)(CO)[C@@H]5CC[C@]43C)[C@@H]12` was 67.7 µM. As for `C=C(C)[C@@H]1CC[C@]2(COC(=O)CCC(=O)O)CC[C@]3(C)[C@H](CC[C@@H]4[C@@]5(C)CC[C@H](OC(=O)CCC(=O)O)[C@@](C)(COC(=O)CCC(=O)O)[C@@H]5CC[C@]43C)[C@@H]12`, the IC50 came to 97.8 µM.

For `C=C(C)[C@@H]1CC[C@]2(C(=O)NCC(=O)N[C@@H](Cc3ccccc3)C(=O)OC)CC[C@]3(C)[C@H](CC[C@@H]4[C@@]5(C)CC[C@H](O)[C@@](C)(CO)[C@@H]5CC[C@]43C)[C@@H]12`, the IC50 amounted to 40.6 µM. Still for that read-out and setting: the value for `C=C(C)[C@@H]1CC[C@]2(COC(C)=O)CC[C@]3(C)[C@H](CC[C@@H]4[C@@]5(C)CC[C@H](OC(C)=O)[C@@](C)(COC(C)=O)[C@@H]5CC[C@]43C)[C@@H]12` was 143 µM; that for `C=C(C)[C@@H]1CC[C@]2(C(=O)NCCCN)CC[C@]3(C)[C@H](CC[C@@H]4[C@@]5(C)CC[C@H](OC(C)=O)[C@@](C)(COC(C)=O)[C@@H]5CC[C@]43C)[C@@H]12` was 15.2 µM. For `C=C(C)[C@@H]1CC[C@]2(C(=O)OC3CCCCC3)CC[C@]3(C)[C@H](CC[C@@H]4[C@@]5(C)CC[C@H](O)[C@@](C)(CO)[C@@H]5CC[C@]43C)[C@@H]12`, the IC50 is 50.4 µM. With `C=C(C)[C@@H]1CC[C@]2(C(=O)OCC#CCOC(=O)CCC(=O)O)CC[C@]3(C)[C@H](CC[C@@H]4[C@@]5(C)CC[C@H](OC(C)=O)[C@@](C)(COC(C)=O)[C@@H]5CC[C@]43C)[C@@H]12`, the half-maximal inhibitory concentration (IC50) is 94.5 µM.

On to `C=C(C)[C@@H]1CC[C@]2(C(=O)NCCCCCCNCC)CC[C@]3(C)[C@H](CC[C@@H]4[C@@]5(C)CC[C@H](OC(C)=O)[C@@](C)(COC(C)=O)[C@@H]5CC[C@]43C)[C@@H]12`, for which the IC50 turned out to be 29.5 µM.

In the case of `C=C(C)[C@@H]1CC[C@]2(C(=O)NCCCCCCNC(=O)CCC(=O)O)CC[C@]3(C)[C@H](CC[C@@H]4[C@@]5(C)CC[C@H](OC(C)=O)[C@@](C)(COC(C)=O)[C@@H]5CC[C@]43C)[C@@H]12`, the half-inhibitory concentration (IC50) is 194 µM. The same measure, in the same setting: the value for `C=C(C)[C@@H]1CC[C@]2(C(=O)OCC#CCO)CC[C@]3(C)[C@H](CC[C@@H]4[C@@]5(C)CC[C@H](O)[C@@](C)(CO)[C@@H]5CC[C@]43C)[C@@H]12` was 194 µM.
